BindingDB's records for patent US9242996 (Novartis, 2016)

Target: Mitogen-activated protein kinase 1 (Homo sapiens, UniProt P28482)
Test: Kinase Assay (New)
Details: pH 7.5
Protocol: Compound dilution series are prepared in 100% DMSO. ERK2 is preincubated with compounds for 30 minutes at ambient temperature. Reaction is initiated by addition of a substrate cocktail of ERKtide peptide and ATP and is allowed to proceed for 2-3 hours at ambient temperature. […] Terminated reactions are read, after overnight incubation in the dark, on an EnVision Multilabel Plate Reader (PerkinElmer, Waltham, Mass.), with excitation and emission wavelengths set to 680 nm and 570 nm, respectively. IC50 values are determined using a four-parameter fit.

Chain of Mitogen-activated protein kinase 1 (P28482 whole entry): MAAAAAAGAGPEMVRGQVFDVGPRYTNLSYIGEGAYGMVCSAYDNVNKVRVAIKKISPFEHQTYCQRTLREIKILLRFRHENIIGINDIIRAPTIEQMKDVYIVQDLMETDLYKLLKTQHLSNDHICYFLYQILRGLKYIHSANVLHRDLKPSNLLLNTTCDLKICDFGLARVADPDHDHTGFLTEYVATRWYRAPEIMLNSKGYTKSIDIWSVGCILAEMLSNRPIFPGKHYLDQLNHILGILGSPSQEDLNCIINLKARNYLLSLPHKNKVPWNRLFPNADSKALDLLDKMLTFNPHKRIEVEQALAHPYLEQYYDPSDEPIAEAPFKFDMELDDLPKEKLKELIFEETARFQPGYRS

With Cc1nn(C)cc1-c1cnc(N)c(-c2ccc(C(=O)NCc3cccc(S(C)(=O)=O)c3)c(F)c2)n1 [US9242996, 145] the IC50 was 7.33 nM.
